Experimental data taken from patent publication US6251903A, “Alkyl, azido, alkoxy, and fluoro-substituted and fused quinoxalinediones and the use thereof as glycine receptor antagonist” (priority 2000, dated 2001).
pKi: −log10 of the molar value. “Also recorded” adds a separate entry of the source.

Tests used:
[1] = target: NMDA receptor glycine sites; assay: electrophysiological assay, cloned rat NMDA receptors expressed in Xenopus oocytes; assay type: cell-based; details: Table II; from electrophysiology using Xenopus oocytes
Text: (§1) The binding affinities of quinoxaline-2,3-diones at NMDA receptor glycine sites also were estimated by electrophysiological assays with either cloned rat NMDA receptors expressed in Xenopus oocytes, or non-NMDA receptors expressed in oocytes by whole rat brain poly(A)^+ RNA. […] For NMDA receptors Ki values were approximated by averaging values at three subtype combinations (NR1A/NR2A, NR1A/NR2B, and NR1A/NR2C).

glycine binding site = glycine binding site (Rattus norvegicus, UniProt P35439); assay: affinity for the glycine binding site / glycine/NMDA receptor (Ki; method not stated)
Text: as §1

mice [2] = assay: anticonvulsant activity in maximum electroshock seizure (MES) experiments in mice; assay type: in vivo, male Swiss/Webster mice; details: route not stated
Protocol: The seizure stimulus parameters were: 50 mA, 60 Hz, rectangular pulse, width 0.8 msec, duration 200 msec. Tonic hind limb extension observed after application of the electrical stimulus was recorded as occurrence of seizure. The drug was applied i.v. as an aqueous Tris (Tromethamine) solution.

mice [3] = assay: formalin test for pain in Swiss Webster mice; assay type: in vivo, male Swiss Webster mice; details: for time spent licking, early phase / time spent licking, late phase (15-50 min): mean ± s.e.m.
Protocol: The effects of the glycine receptor antagonists of the present invention on chronic pain can be evaluated as follows. Male Swiss/Webster mice weighing 25-35 grams are housed five to a cage with free access to food and water and are maintained on a 12 hour light cycle (light onset at 0800h). The glycine receptor antagonist is dissolved in DMSO at a concentration of 140 and 5-40 mg/mL, respectively. DMSO is used as vehicle control. All drugs=are injected intraperitoneally (1 μl/g). […] Mice are observed in a plexiglass cylinder, 25 cm in diameter and 30 cm in height. The plantar surface of one hindpaw is injected subcutaneously with 20 μl of 5% formalin. The degree of pain is determined by measuring the amount of time the animal spends licking the formalin-injected paw during the following time intervals: 0-5' (early phase); 5'-10', 10'-15' and 15'-50' (late phase). To test whether the glycine/excitatory amino acid antagonists prevent chronic pain in the test animals, vehicle (DMSO) or drugs dissolved in vehicle at doses of 1 mg/kg to 40 mg/kg are injected intraperitoneally 30 minutes prior to the formalin injection. For each dose of drug or vehicle control at least six animals are used.
Briefly, after a 60 minute accommodation period in plexiglass jars, mice were weighed and injected intraperitoneally (i.p.) with NDMQX (1-20 mg/kg; N=6-10 mice/dose). Controls were injected with DMSO (1 mL/kg, i.p.). Thirty min later, mice were injected with formalin (20 μl of 5% solution) just under the skin of the right hind paw, transferred to the plexiglass jars, and immediately observed for licking or biting of the injected paw for 1 hr. The amount of time that each mouse spent licking the injected paw was measured at 0-5 min (early phase) and 15-50 min (late phase).
In the formalin test, following a 1 hr accommodation period, mice were injected i.p. with NMCQX (1.00-10.00 mg/kg, N=7-13 mice/dose) or NDMQX (0.5-20.00 mg/kg, N=8-9 mice/dose). Control mice were injected with Tris (0.5 M) or Bis-Tris (0.2 M), respectively. Mice were then injected with formalin. […] The amount of time that each mouse spent licking and/or biting the injected paw was recorded for 1 hr.

mice [4] = assay: MES test with i.p. NMCQX or NDMQX (Example 51); assay type: in vivo, Swiss Webster mice; details: NMCQX 1.25-7.50 mg/kg, NDMQX 5.00-15.00 mg/kg
Protocol: In the MES test, mice were injected i.p. with NMCQX (1.25-7.50 mg/kg) or NDMQX (5.00-15.00 mg/kg). Control mice were injected with Tris (0.05 M) or Arginine (0.1 M), respectively. Seizures were then induced by applying a rectangular pulse, 50 mA, 60 pulses/sec, 0.8 msec pulse width, and 0.2 sec train length, at the time of the drugs' peak effect.

mice [5] = assay: morphine tolerance in the formalin test (8 days chronic); assay type: in vivo, male Swiss Webster mice
Protocol: A modification of a previously described method was used (Hunskaar et al., J. Neurosci. Meth. 14:69-76 (1985)). Briefly, mice were placed in Plexiglas jars for at least 1 hr for accommodation to the experimental condition. Formalin (20 μl of 5% formaldehyde solution in saline) was injected into the dorsal surface of the right hind paw using a microsyringe (Hamilton Co., Reno, Nev.) with a 27-gauge needle. Mice were then transferred to the Plexiglas jars and immediately observed for licking or biting of the injected paw for 1 hr. The amount of time that each mouse spent licking or biting the injected paw was recorded for every 5-min period for a 1 hr observation period.
[…] Mice were immediately, within a minute, injected with either saline or morphine (20 mg/kg, s.c.). On day 9, mice were weighed and after a 1-hr accommodation period-injected with morphine (4 mg/kg, s.c.). Thirty min later, all mice were tested in the formalin test (see above).

mice [6] = assay: effect of chronic NDMQX on morphine antinociception in the formalin test; assay type: in vivo, male Swiss Webster mice; details: 40 mg/kg i.p., 8 days
rats = assay: rat model of permanent focal cerebral ischemia, continuous intravenous infusion; assay type: in vivo, male Sprague-Dawley rats
Protocol: Male Sprague-Dawley rats (290-320 g) were […] and maintained under anesthesia with ±2% of halothane. […] The common carotid arteries (CCA) were isolated, and a loose silk ligature Was placed around each CCA. A vertical skin incision was made between the left orbit and the auditory canal, posterior part of zygoma removed and small opening (2.0/2.5 mm) drilled dorsorostrally to the foramen ovale under constant saline irrigation. The dura was opened with a microsurgical hook and the brain gently retracted with a fine spatula to expose the bifurcation of the internal carotid artery and the middle cerebral artery. The ipsilateral CCA was ligated and the MCA coagulated from its origin to the olfactory tract Two hours after MCA occlusion, the clip from the contralateral CCA was removed.
NDMQX was dissolved in 0.1 M L-arginine and 5% glucose and infused as a slow 10 mg/kg i.v. bolus (immediately after MCA occlusion) followed by 7 mg/kg/h infusion for 22 hours.
Brains were sliced into 2 mm blocks and stained with tetrazolium red (2,3,5-triphenyl tetrazolium chloride). The areas of brain damage were assessed using an image analyzer (Image-1, Universal Imaging Corporation, PA) to determine the volume of cortical and subcortical infarction by integration of areas and the distance between each level.
For the drug administration, the NMCQX was dissolved in 0.05 Tris and 5% glucose. It was infused as a slow 2 mg/kg i.v. bolus (immediately after MCA occlusion) followed by 1.4 mg/kg/h infusion for 22 hours.

[7] = penetration of the blood/brain barrier, access to the central nervous system; assay type: in vivo; details: inferred from Ki and MES ED50

## Cc1cc2nc(O)c(O)nc2c([N+](=O)[O-])c1C [NDMQX, 6,7-Dimethyl-5-nitro-1,4-dihydroquinoxaline-2,3-dione]
[1]
  pKi: 7.37
Glycine binding site
  pKi: 7.37
Glycine binding site; from Ki
  times less active than 6,7-dichloro-5-nitro-1,4-dihydroquinoxaline-2,3-dione at the glycine/NMDA receptor: about 10 times
Mice [2]
  ED50 as an anticonvulsant in the MES experiment in mice: 4 to 5 mg/kg
Mice [3]; 1.0 mg/kg i.p.
  time spent licking, early phase: 72.57 ± 14.2 sec per 5 min period
  time spent licking, late phase (15-50 min): 37.59 ± 5.37 sec per 5 min period
Mice [3]; 2.5 mg/kg i.p.
  time spent licking, early phase: 78.50 ± 10.0 sec per 5 min period
  time spent licking, late phase (15-50 min): 26.38 ± 5.43 sec per 5 min period
Mice [3]; 5 mg/kg i.p.
  time spent licking, early phase: 32.83 ± 8.28 sec per 5 min period
  time spent licking, late phase (15-50 min): 10.24 ± 2.66 sec per 5 min period
Mice [3]; 10 mg/kg i.p.
  time spent licking, early phase: 29.17 ± 14.9 sec per 5 min period
  time spent licking, late phase (15-50 min): 10.19 ± 2.44 sec per 5 min period
Mice [3]; 15 mg/kg i.p.
  time spent licking, early phase: 6.83 ± 1.85 sec per 5 min period
  time spent licking, late phase (15-50 min): 3.19 ± 1.37 sec per 5 min period
Mice [3]; 20 mg/kg i.p.
  time spent licking, early phase: 4.33 ± 2.85 sec per 5 min period
  time spent licking, late phase (15-50 min): 0.05 ± 0.05 sec per 5 min period
Mice [3]; i.p., early and late phases
  antinociceptive effect in the formalin test: attenuated the mean time spent licking in a dose-dependent manner in both phases; also recorded: significant analgesic effect in both phases; also recorded: dose-dependent antinociceptive effect in both phases
Mice [4]
  protection from electroshock seizures: dose-dependently protected mice from generalized clonic-tonic seizures
Mice [5]; 2 mg/kg
  effect on morphine tolerance: no effect on morphine tolerance
Mice [5]; 20 mg/kg
  effect on morphine tolerance: attenuated
Mice [5]; 40 mg/kg
  effect on morphine tolerance: completely abolished
Mice [5]; 8 days, early and late phases
  morphine tolerance (words, overall): Tolerance did not develop in mice treated with NDMQX followed by morphine; also recorded: blocked morphine tolerance in both phases of the formalin test
Mice [6]
  effect on morphine-induced antinociception: did not alter the antinociceptive effect of morphine; also recorded: not due to potentiation of morphine-induced antinociception
rats; 10 mg/kg i.v. bolus then 7 mg/kg/h for 22 hours, p<0.05
  reduction in cortical infarct volume: 71%
rats; rat focal ischemia
  neuroprotection: significant neuroprotection
[7]
  times better in crossing the blood brain barrier than 6,7-dichloro-5-nitro-1,4-dihydroquinoxaline-2,3-dione: about 10 times
